Reference: patent EP0418835B1, “Novel alkaline pullulanase y having alpha-amylase activity, microorganism producing the same, and process for producing the same” (KAO CORPORATION, priority 1989, dated 1991)

Experiments:
Assay type in all cases: biochemical, Bacillus sp. KSM-AP1378
alkaline pullulanase Y [1] = test: Substrate specificity (relative activity on various substrates); conditions: substrate concentration 1 x 10⁻² M
Protocol: (§1) 0.1 ml of enzyme solution was added to 0.9 ml of each substrate solution prepared from each buffer solution containing pullulan (final concentration in the reaction system: 0.25% w/v) and the mixture was reacted at 40°C for 30 minutes. After the reaction, reducing sugars were quantitatively determined by means of the 3,5-dinitro-salicylic acid (DNS) procedure. Specifically, 1.0 ml of a DNS reagent was added to 1.0 ml of reaction mixture and the mixture was heated at 100°C for 5 minutes to develop a color. After cooling, the mixture was diluted by adding 4.0 ml of deionized water. This solution was subjected to colorimetric quantitative analysis at a wave length of 535 nm. One unit (1 U) of enzyme activity was defined as the amount of enzyme which released 1 µmol of reducing sugar (as glucose) per minute under the standard assay conditions.
Acts on pullulan, soluble starch, and glycogen. (See Table 1) Table 1

alkaline pullulanase Y [2] = test: Effects of metal ions and chelating agents on pullulanase activity (DNS reducing sugar assay)
Protocol: as §1

alkaline pullulanase Y [3] = test: Effects of metal ions and chelating agents on α-amylase activity (DNS reducing sugar assay)
Protocol: as §1, with “soluble starch” for “pullulan”, “50°C” for “40°C”, “15” for “30”, “a DNS method.” for “the 3,5-dinitro-salicylic acid (DNS) procedure.”

Compound	Relative Activity (%) (alkaline pullulanase Y [1])	Residual activity (%) Pullulanase Activity (alkaline pullulanase Y [2]; metal salt 1 mM) [%]	Residual activity (%) α-amylase Activity (alkaline pullulanase Y [3]; metal salt 1 mM) [%]	further results
OC[C@H]1O[C@H](OC[C@H]2OC(O)[C@H](O)[C@@H](O)[C@@H]2O)[C@H](O)[C@@H](O)[C@@H]1O (some centres unmarked) [Isomaltose]	4			
OC[C@H]1O[C@H](O[C@H]2[C@H](O)[C@@H](O)C(O)O[C@@H]2CO)[C@H](O)[C@@H](O)[C@@H]1O (mixture of isomers) [Maltose]	0			
O=C(O)CN(CCN(CC(=O)O)CC(=O)O)CC(=O)O [EDTA]				Residual activity (%) Pullulanase Activity (alkaline pullulanase Y [2]; chelating agent 10 mM): 77%
OC[C@H]1O[C@@H](OC[C@H]2OC(O)[C@H](O)[C@@H](O)[C@@H]2O)[C@H](O)[C@@H](O)[C@@H]1O (some centres unmarked) [Gentiobiose]	0			
[Cl][Mn][Cl] [MnCl₂]		51	28	
O=C(O)CN(CCOCCOCCN(CC(=O)O)CC(=O)O)CC(=O)O [EGTA]				Residual activity (%) Pullulanase Activity (alkaline pullulanase Y [2]; chelating agent 10 mM): 65%; Residual activity (%) α-amylase Activity (alkaline pullulanase Y [3]; chelating agent 10 mM): 18%; Residual activity (%) α-amylase Activity when Ca⁺² ions was again added (alkaline pullulanase Y [3]; chelating agent 10 mM, Ca⁺² ions added again (value in parenthesis)): 91%
HgCl₂		36	53	
OC[C@H]1O[C@H](OC[C@H]2O[C@H](O[C@H]3[C@H](O)[C@@H](O)C(O)O[C@@H]3CO)[C@H](O)[C@@H](O)[C@@H]2O)[C@H](O)[C@@H](O)[C@@H]1O (some centres unmarked) [Panose]	0			
[Cl][Pb][Cl] [PbCl₂]		53	53	
[Cl][Cd][Cl] [CdCl₂]		80	38	
OC[C@H]1O[C@H](OC[C@H]2O[C@H](OC[C@H]3OC(O)[C@H](O)[C@@H](O)[C@@H]3O)[C@H](O)[C@@H](O)[C@@H]2O)[C@H](O)[C@@H](O)[C@@H]1O (some centres unmarked) [Isomaltotriose]	11			
OC[C@H]1O[C@H](O[C@H]2[C@H](O)[C@@H](O)[C@@H](O[C@H]3[C@H](O)[C@@H](O)C(O)O[C@@H]3CO)O[C@@H]2CO)[C@H](O)[C@@H](O)[C@@H]1O (some centres unmarked) [Maltotriose]	0			
[Cl-].[Cl-].[Zn+2] [ZnCl₂]		93	57	
